From ChEMBL document CHEMBL3608232, “Exploring the Existing Drug Space for Novel pTyr Mimetic and SHP2 Inhibitors” (ACS Med Chem Lett, 2015) come the findings set out here.

pIC50: −log10 of the molar value.

Experiment [1] concerns the target T1, Low molecular weight phosphotyrosine protein phosphatase (Homo sapiens, UniProt P24666).
T1 sequence (P24666 whole entry): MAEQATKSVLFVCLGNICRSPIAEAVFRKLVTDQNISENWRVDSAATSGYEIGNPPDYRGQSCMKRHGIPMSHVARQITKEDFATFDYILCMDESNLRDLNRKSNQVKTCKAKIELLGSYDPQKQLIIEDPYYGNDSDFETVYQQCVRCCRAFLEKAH
The experiment can be described thus: Inhibition of phosphatase activity of human LMWPTP using pNPP as a substrate after 10 mins by spectrophotometer analysis.

In experiment [2] the target is T2, Dual specificity protein phosphatase CDC14A (Homo sapiens, UniProt Q9UNH5).
T2 sequence (Q9UNH5 whole entry): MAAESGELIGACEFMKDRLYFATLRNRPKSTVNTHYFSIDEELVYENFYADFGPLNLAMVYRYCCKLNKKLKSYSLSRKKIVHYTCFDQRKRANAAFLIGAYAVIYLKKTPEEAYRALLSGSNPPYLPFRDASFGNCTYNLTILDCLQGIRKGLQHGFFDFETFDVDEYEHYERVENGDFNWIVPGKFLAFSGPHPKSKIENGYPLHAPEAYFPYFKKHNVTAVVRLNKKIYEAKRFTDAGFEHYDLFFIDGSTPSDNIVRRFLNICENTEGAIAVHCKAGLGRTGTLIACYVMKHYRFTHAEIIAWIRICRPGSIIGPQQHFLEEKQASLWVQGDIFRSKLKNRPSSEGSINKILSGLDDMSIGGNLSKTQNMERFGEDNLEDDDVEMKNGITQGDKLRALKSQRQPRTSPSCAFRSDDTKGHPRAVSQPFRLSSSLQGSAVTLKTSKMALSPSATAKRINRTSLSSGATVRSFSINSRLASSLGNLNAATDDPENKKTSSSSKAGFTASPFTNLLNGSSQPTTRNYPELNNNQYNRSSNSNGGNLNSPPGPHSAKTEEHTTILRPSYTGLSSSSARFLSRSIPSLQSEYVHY
The experiment can be described thus: Inhibition of phosphatase activity of human CDC14A using pNPP as a substrate after 10 mins by spectrophotometer analysis.

The target in experiment [3] is Receptor-type tyrosine-protein phosphatase alpha (Homo sapiens, UniProt P18433). The experiment can be described thus: Inhibition of phosphatase activity of human PTPalpha using pNPP as a substrate after 10 mins by spectrophotometer analysis.
For experiment [4], the target named is T3, Tyrosine-protein phosphatase non-receptor type 9 (Homo sapiens, UniProt P43378).
T3 sequence (P43378 whole entry): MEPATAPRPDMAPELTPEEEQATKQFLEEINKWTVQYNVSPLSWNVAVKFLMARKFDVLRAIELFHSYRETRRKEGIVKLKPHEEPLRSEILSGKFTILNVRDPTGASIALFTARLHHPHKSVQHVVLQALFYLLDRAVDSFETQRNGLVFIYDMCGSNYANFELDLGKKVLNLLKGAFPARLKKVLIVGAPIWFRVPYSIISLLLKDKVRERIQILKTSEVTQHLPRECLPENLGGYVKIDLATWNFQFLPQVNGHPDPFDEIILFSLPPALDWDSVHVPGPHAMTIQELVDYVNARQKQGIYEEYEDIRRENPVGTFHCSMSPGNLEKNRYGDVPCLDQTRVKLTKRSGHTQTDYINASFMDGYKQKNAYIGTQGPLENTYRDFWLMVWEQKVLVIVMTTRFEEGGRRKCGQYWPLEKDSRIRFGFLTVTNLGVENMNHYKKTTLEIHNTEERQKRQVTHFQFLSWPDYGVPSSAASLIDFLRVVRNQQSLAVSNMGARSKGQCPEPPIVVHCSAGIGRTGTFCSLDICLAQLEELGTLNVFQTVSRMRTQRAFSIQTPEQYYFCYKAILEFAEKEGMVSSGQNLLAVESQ
The experiment can be described thus: Inhibition of phosphatase activity of human Meg2 using pNPP as a substrate after 10 mins by spectrophotometer analysis.

The subject of another experiment is NCI-H1975. The experiment can be described thus: Cytotoxicity against human NCI-H1975 cells by MTT assay. Format: functional, cell-based.
Experiment [5] addresses T4, Serine/threonine-protein phosphatase 5 (Homo sapiens, UniProt P53041).
T4 sequence (P53041 whole entry): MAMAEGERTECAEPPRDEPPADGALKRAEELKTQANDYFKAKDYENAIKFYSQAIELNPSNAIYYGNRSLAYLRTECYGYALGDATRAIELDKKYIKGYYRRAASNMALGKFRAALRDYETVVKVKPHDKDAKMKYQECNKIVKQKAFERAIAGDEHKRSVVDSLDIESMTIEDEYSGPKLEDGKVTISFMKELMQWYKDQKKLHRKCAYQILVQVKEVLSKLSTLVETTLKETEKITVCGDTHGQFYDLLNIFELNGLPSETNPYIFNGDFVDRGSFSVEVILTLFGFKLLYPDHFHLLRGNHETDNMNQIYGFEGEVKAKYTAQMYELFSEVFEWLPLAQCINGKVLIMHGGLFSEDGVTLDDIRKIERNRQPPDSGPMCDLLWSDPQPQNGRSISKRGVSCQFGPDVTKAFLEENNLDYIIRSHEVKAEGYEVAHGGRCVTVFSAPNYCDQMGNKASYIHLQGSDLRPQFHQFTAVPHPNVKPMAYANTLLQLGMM
Put plainly: Inhibition of phosphatase activity of human PP5 using pNPP as a substrate after 10 mins by spectrophotometer analysis.

In experiment [6] the target is Receptor-type tyrosine-protein phosphatase epsilon (Homo sapiens, UniProt P23469). Put plainly: Inhibition of phosphatase activity of human PTPepsilon using pNPP as a substrate after 10 mins by spectrophotometer analysis.
Experiment [7] deals with Receptor-type tyrosine-protein phosphatase mu (Homo sapiens, UniProt P28827). Put plainly: Inhibition of phosphatase activity of human PTPmu using pNPP as a substrate after 10 mins by spectrophotometer analysis.
Experiment [8] has as its target T5, Tyrosine-protein phosphatase non-receptor type 7 (Homo sapiens, UniProt P35236).
T5 sequence (P35236 whole entry): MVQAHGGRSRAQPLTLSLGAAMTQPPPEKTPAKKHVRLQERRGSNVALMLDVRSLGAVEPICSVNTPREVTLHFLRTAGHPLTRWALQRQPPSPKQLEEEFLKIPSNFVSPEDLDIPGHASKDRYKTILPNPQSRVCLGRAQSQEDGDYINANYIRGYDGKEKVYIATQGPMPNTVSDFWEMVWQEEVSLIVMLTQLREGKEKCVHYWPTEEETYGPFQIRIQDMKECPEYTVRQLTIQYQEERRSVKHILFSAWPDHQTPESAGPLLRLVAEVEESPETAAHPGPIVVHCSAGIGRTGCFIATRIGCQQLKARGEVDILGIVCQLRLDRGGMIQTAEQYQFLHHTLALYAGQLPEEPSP
Put plainly: Inhibition of phosphatase activity of human HePTP using pNPP as a substrate after 10 mins by spectrophotometer analysis.

A further experiment deals with MDA-MB-231. Put plainly: Cytotoxicity against human MDA-MB-231 cells by MTT assay. Format: functional, cell-based.
Experiment [9] concerns the target Receptor-type tyrosine-protein phosphatase beta (Homo sapiens, UniProt P23467). Put plainly: Inhibition of phosphatase activity of human PTPbeta using pNPP as a substrate after 10 mins by spectrophotometer analysis.

Chain of Receptor-type tyrosine-protein phosphatase epsilon (P23469 whole entry): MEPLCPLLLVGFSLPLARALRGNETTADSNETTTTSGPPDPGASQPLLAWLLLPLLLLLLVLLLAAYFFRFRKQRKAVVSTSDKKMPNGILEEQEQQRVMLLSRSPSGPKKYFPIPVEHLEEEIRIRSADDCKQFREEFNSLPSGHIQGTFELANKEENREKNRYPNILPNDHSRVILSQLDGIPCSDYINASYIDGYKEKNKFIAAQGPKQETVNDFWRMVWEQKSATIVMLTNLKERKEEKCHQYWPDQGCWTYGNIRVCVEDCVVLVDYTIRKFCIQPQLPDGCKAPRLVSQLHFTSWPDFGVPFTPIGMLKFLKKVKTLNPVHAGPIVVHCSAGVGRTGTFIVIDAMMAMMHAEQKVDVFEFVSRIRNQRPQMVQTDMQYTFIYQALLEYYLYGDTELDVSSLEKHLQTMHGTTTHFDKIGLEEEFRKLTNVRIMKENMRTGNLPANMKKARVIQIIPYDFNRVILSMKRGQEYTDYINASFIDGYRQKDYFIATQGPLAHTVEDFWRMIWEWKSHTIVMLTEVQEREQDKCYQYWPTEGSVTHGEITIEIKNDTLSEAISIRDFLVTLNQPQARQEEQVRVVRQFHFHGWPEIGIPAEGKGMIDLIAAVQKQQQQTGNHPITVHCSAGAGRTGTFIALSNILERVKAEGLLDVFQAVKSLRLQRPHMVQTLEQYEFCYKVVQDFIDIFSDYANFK
Chain of Receptor-type tyrosine-protein phosphatase mu (P28827 whole entry): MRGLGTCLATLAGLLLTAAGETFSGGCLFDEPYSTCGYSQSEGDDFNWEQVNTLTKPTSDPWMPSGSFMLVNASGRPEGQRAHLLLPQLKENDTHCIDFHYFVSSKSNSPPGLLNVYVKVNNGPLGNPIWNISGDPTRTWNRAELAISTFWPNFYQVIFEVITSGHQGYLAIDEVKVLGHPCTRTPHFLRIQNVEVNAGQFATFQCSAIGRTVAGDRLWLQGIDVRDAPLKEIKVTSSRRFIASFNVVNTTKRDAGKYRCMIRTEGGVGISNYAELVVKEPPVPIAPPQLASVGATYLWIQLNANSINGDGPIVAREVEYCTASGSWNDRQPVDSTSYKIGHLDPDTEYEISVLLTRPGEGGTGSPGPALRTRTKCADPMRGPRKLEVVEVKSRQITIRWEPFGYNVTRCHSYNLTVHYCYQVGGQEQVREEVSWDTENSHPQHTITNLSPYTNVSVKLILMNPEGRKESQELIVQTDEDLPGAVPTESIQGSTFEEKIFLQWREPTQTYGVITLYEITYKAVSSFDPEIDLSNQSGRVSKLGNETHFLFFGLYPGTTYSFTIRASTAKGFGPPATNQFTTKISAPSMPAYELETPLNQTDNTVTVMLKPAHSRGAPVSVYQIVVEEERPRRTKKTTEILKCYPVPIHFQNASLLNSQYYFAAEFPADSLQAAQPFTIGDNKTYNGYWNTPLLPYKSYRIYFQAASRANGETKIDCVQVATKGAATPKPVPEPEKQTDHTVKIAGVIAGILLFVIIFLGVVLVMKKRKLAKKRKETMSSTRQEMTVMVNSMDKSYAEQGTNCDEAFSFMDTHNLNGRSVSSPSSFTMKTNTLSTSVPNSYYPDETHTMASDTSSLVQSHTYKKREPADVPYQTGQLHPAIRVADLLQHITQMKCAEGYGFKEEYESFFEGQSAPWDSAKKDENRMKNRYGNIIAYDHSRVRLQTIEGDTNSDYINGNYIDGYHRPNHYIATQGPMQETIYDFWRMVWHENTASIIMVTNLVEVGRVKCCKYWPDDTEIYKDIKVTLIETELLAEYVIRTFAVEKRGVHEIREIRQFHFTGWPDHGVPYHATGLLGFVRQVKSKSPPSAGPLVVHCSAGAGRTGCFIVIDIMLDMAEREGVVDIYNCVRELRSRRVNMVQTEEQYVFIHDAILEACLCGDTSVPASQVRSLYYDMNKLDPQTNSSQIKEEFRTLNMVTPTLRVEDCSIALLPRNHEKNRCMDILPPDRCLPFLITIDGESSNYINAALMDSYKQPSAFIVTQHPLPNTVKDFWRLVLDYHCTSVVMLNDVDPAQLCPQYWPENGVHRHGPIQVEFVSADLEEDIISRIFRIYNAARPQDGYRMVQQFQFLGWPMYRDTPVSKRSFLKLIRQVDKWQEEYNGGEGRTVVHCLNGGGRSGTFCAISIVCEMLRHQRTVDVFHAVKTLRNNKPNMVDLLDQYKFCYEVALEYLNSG
Chain of Receptor-type tyrosine-protein phosphatase alpha (P18433 whole entry): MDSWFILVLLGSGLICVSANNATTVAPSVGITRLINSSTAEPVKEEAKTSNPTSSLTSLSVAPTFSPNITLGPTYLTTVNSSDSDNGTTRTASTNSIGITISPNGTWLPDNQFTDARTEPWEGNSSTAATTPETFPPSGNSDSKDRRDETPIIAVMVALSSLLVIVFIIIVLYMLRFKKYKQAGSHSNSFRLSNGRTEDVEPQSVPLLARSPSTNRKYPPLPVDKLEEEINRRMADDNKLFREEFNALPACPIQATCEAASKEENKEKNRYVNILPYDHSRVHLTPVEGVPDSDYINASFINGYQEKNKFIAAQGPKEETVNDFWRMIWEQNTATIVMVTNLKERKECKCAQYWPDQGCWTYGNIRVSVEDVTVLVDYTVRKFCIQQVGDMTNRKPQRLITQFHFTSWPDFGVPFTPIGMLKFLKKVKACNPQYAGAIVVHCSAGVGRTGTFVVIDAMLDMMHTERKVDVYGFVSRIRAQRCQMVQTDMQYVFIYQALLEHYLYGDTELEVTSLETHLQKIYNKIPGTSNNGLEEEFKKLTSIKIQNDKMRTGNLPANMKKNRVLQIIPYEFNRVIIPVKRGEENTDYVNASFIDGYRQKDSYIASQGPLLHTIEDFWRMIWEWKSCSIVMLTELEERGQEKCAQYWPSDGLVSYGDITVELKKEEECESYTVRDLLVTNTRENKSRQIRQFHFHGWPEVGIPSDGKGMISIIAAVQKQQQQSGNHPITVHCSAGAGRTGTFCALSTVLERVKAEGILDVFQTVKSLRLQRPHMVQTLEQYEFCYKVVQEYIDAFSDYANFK
Chain of Receptor-type tyrosine-protein phosphatase beta (P23467 whole entry): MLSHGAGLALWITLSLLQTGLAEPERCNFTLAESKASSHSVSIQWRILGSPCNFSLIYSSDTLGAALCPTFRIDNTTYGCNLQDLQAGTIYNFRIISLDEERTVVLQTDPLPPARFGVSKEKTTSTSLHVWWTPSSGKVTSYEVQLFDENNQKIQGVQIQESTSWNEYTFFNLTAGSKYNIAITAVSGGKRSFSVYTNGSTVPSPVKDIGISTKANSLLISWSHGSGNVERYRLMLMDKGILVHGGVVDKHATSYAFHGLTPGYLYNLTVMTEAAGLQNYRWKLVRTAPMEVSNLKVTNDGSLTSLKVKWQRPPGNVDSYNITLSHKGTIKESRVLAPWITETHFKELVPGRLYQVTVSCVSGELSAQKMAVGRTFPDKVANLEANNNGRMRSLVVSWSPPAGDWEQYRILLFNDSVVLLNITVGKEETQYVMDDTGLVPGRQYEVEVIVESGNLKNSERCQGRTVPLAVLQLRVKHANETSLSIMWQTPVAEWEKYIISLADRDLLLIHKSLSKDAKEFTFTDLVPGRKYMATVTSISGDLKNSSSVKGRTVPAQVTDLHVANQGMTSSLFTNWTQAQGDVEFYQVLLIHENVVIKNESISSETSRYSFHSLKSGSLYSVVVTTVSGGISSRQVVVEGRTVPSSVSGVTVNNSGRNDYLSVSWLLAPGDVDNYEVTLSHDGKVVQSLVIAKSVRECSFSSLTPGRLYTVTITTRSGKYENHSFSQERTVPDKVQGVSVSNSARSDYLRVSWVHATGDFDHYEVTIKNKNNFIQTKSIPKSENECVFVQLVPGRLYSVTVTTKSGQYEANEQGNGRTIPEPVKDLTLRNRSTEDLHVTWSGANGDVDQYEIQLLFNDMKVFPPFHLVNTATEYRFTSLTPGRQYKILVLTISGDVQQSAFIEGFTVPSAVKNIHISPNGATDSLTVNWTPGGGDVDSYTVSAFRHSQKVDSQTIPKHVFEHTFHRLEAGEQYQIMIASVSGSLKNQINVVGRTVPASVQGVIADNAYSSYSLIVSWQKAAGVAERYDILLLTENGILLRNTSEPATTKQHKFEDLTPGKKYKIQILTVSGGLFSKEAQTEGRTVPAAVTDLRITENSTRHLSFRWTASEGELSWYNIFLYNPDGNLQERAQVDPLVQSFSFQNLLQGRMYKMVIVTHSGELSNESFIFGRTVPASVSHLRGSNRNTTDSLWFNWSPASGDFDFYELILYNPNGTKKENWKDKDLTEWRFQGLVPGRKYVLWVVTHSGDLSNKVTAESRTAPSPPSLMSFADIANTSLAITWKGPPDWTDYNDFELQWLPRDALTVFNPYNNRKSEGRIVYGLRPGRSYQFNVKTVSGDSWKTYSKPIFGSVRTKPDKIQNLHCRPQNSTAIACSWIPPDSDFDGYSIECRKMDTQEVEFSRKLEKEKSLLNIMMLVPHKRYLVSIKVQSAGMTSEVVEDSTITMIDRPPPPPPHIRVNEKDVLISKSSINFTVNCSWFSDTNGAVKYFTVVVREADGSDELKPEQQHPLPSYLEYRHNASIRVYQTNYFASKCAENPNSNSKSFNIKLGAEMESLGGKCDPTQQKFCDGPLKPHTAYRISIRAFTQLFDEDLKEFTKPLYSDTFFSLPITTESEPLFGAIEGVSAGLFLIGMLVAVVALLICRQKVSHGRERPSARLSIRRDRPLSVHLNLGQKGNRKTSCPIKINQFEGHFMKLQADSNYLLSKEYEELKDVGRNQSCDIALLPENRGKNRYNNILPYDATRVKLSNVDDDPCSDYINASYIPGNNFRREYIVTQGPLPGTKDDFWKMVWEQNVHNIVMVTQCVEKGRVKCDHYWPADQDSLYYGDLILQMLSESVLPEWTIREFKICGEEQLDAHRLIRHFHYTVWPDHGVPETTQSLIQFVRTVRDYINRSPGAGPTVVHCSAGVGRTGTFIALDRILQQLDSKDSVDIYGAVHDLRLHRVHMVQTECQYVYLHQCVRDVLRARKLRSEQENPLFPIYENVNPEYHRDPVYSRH

For `O=C(Nc1ccc(NC(=O)C(c2ccccc2)S(=O)(=O)O)cc1)C(=O)Nc1ccc(-c2ccccc2)cc1` (configuration not stated), the pIC50 in [1], in [2], in experiment [3], in experiment [4], in [5] and in experiment [6] was less than 4.30 throughout. For the same compound, the pIC50 in experiment [7], in [8] and in experiment [9] was less than 4.30 throughout. Besides, the Activity entry in the experiment on NCI-H1975 and with MDA-MB-231 was “Dose-dependent effect” throughout.
In the case of `O=C(Nc1ccc(I)cc1)C(=O)Nc1ccc(NC(=O)C(c2ccccc2)S(=O)(=O)O)cc1` (configuration not stated), the negative logarithm of the IC50 (pIC50) in [1], in [2], in experiment [3], in [4], in experiment [5] and in experiment [6] was less than 4.30 in each case. Moreover, the pIC50 in [7], in experiment [8] and in experiment [9] was less than 4.30 throughout. For the same compound, the Activity result in the experiment on NCI-H1975 and in the experiment on MDA-MB-231 was “Dose-dependent effect” in each case.
